Laboratory results from PMC7962978, “PSMA-D4 Radioligand for Targeted Therapy of Prostate Cancer: Synthesis, Characteristics and Preliminary Assessment of Biological Properties” (International Journal of Molecular Sciences, 2021).
Where two headings read alike, the source gives them in different places.

Tests used:
PSMA antigen [1] = target: T1, PSMA antigen (Homo sapiens, UniProt Q04609); assay: Competitive binding assay on LNCaP cell membranes with [^177Lu]Lu-PSMA-617 as radioligand; settings: radioligand [^177Lu]Lu-PSMA-617, 2 h incubation
T1 construct: PSMA antigen expressed on LNCaP cell membranes; endogenous in cells; host or cells: LNCaP cell membranes (PC3 membranes as PSMA-negative control)
T1 sequence (Q04609 whole entry): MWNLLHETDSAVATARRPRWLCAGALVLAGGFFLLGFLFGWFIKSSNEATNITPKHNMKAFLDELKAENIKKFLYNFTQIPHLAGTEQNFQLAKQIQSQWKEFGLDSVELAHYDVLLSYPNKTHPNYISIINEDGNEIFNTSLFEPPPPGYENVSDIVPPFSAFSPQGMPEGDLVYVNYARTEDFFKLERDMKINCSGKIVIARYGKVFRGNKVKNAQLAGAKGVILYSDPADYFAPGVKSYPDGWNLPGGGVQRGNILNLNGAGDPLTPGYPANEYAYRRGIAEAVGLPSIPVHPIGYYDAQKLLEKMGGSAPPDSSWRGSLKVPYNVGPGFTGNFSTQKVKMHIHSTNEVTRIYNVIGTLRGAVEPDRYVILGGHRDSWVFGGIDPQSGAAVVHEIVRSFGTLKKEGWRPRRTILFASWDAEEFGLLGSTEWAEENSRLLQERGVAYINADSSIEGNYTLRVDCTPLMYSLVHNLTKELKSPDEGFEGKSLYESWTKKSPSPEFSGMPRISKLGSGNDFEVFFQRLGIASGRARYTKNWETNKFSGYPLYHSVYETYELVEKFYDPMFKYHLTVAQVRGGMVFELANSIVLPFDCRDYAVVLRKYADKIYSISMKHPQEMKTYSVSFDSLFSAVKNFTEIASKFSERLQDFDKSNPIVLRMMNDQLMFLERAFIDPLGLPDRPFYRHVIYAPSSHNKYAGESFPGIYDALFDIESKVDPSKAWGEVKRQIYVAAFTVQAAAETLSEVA
Protocol: The half-maximal inhibitory concentration (IC50) of PSMA-D4 was determined in a competitive binding assay carried out on 96-well MuliScreen filter plates using LNCaP cell membranes (50 mcL) incubated with [^177Lu]Lu-PSMA-617 as a radioligand and ten different concentrations (2.4–9708 nM) of PSMA-D4. After 2 h incubation, plates were treated in the same way as in the saturation binding assay. The amount of bound radioactivity was measured in γ-counter. IC50 value was evaluated using GraphPad Prism software (Darmstadt, Germany).

LNCaP cells = assay: Cell uptake (total binding) and internalization in LNCaP cells; assay type: cell-based, human; settings: 37 °C, 2 h
Protocol: To determine cell uptake and internalization of [^177Lu]Lu-PSMA-D4 and [^90Y]Y-PSMA-D4, LNCaP cells (5 × 10^5 cells well^−1) were incubated in un-supplemented RPMI 1640 medium with one concentration of tested radioligands on 12-well plates in 37 °C per 2 h. After the appropriate time, the medium was removed, and cells were washed twice using phosphate buffer saline (PBS, IITD PAN, Wroclaw, Poland). The cells were treated twice with 1 mL of 50 mM glycine in 0.1 M NaCl at a pH of 2.8 and incubated for 5 min at room temperature to collect extracellularly bound compound. The internalization was determined by measuring the radioactivity of 1mL of 1 M NaOH used for cell lysis. Total binding was calculated as a sum of the membrane and internalized fractions measured using Wallac Wizard 1470 γ counter. As a control, [^177Lu]Lu-PSMA-617 and [^68Ga]Ga-PSMA-11 were used.

PSMA antigen [2] = target: T1, PSMA antigen; assay: Saturation radioligand binding assay on LNCaP (PSMA positive) and PC3 (PSMA negative) cell membranes; settings: for Kd: LNCaP cell membranes, 2 h, 37 °C; for Specific Binding: total binding on LNCaP minus non-specific binding on PC3 membranes
Protocol: The equilibrium constant (KD) was determined by a saturation binding experiment performed in PSMA positive LNCaP and PSMA negative PC3 cell membranes isolated according to the procedure developed by Fichna et al.. The 50 mcL of LNCaP and PC3 cell membranes were seeded on special MultiScreen™ 96 well filter plates (Merck, Warsaw, Poland) and incubated for 2 h with increasing concentration of [^177Lu]Lu-PSMA-D4, [^90Y]Y-PSMA-D4, and […] (0.016–194 nM) at 37 °C. After incubation, the unbound radiocomplexes were filtered under vacuum, and the membranes were washed twice using PBS. The filters containing membranes with the attached radiotracer were extruded into tubes using MultiScreen Multile Punch (Merck). The number of associated inhibitors was determined by measuring the radioactivity of squeezed filters using Wallac Wizard 1470 γ counter. The KD and Bmax were calculated by nonlinear regression using the GraphPad Prism statistic program.

[3] = system: PC-3 PIP (PSMA positive) tumor-bearing mice; set-up: method as in PMID 28102507; settings: PC-3 PIP tumor, 2 h p.i.v., 1 nmol, BALB/c Nude mice; cited from earlier work
[4] = Lipophilicity determination (logD), shake-flask method; assay type: physicochemical; settings: n-octanol / PBS pH 7.4, shake-flask
Protocol: The partition coefficient logD of the radioligands was determined by the shake-flask method. The solution of 10 to 50 MBq of radiolabeled PSMA ligands (D-4, 617, 11, I&T) in 1.0 mL of phosphate-buffered saline (PBS, pH 7.4) was added to 1.0 mL of presaturated n-octanol solution (n = 3). Vials were shaken vigorously for 10 min. To achieve quantitative phase separation, the vials were centrifuged at 1600 rpm for 5 min. The radioactivity concentration in a defined volume of both the aqueous and the organic phase in six replicates each was measured in a γ-counter (Wizard 1470, Wallac, Turku, Finland). The partition coefficient was calculated as the logarithm of the ratio between counts per minute (cpm) measured in the n-octanol phase to the PBS phase counts.

LNCaP tumor-bearing mice = settings: 1 h p.i.v., cited from earlier work
PSMA = system: PSMA; set-up: method as in earlier work; settings: ref 34 (Tönnesmann R et al.); cited from earlier work
mCRPC patients = system: mCRPC patients; set-up: method as in PMID 32172798, PMID 31418764, PMID 32290196; settings: four clinical studies, approximately 150 mCRPC patients; cited from earlier work
[5] = 0.2 nmol, CD-1 nu/nu mice, ref 14
[6] = 0.2 nmol, CD-1 nu/nu mice, ref 37

Which IC50 (PSMA antigen [1]) does the source give for `O=C(O)CC[C@H](NC(=O)N[C@@H](CCCCNC(=O)CCCCCCC(=O)NCCCC[C@@H](NC(=O)[C@@H](Cc1ccccc1)NC(=O)[C@@H](Cc1ccc(O)c(I)c1)NC(=O)CCC(C(=O)O)N1CCN(CC(=O)O)CCN(CC(=O)O)CCN(CC(=O)O)CC1)C(=O)O)C(=O)O)C(=O)O` (some centres unmarked) [PSMA-I&T, Glu-CO-Lys[(Sub)DLys-DPhe-DTyr(3I)-DOTAGA]] here?
The IC50 was 61.1 ± 7.8 nM.

Which results are given for `O=C([O-])CN(CCN(CC(=O)[O-])Cc1cc(CCC(=O)NCCCCCC(=O)NCCCC[C@H](NC(=O)N[C@@H](CCC(=O)O)C(=O)O)C(=O)O)ccc1[O-])Cc1cc(CCC(=O)O)ccc1[O-].[68Ga+3].[OH3+]` [[^68Ga]Ga-PSMA-11]?
Internalization (LNCaP cells): 2.6%; Total Binding (LNCaP cells): 13.1%; Kd (PSMA antigen [2]): 11.4 ± 7.1 nM; Specific Binding (PSMA antigen [2]): 96.8 ± 2.7%; kidneys [3]: 58.8 ± 7.62 %ID g^−1; spleen [3]: 2.18 ± 0.38 %ID g^−1; tumor [3]: 40.0 ± 2.55 %ID g^−1; logD [4]: −3.46 ± 0.06; tumor (LNCaP tumor-bearing mice; dose n.d., Nude mice): 7.28 ± 0.82 %ID g^−1

With `O=C(O)CCc1ccc(O)c(CN(CCN(CC(=O)O)Cc2cc(CCC(=O)NCCCCCC(=O)NCCCC[C@H](NC(=O)N[C@@H](CCC(=O)O)C(=O)O)C(=O)O)ccc2O)CC(=O)O)c1` [PSMA-11, reference compound] as the compound, how does the IC50 (PSMA antigen [1]) read?
The IC50 was 84.5 ± 26.5 nM.

What about the Internalization (LNCaP cells) of the same compound?
Its Internalization is 2.6%.

For `O=C([O-])CN1CCN(CC(=O)[O-])CCN(CC(=O)NCC2CCC(C(=O)NC(Cc3ccc4ccccc4c3)C(=O)NCCCCC(NC(=O)NC(CCC(=O)O)C(=O)O)C(=O)O)CC2)CCN(CC(=O)[O-])CC1.[90Y+3]` (centres unmarked) [[^90Y]Y-PSMA-617], which logD [4] is on record?
The logD was −5.08 ± 0.13.

What does the source list for `O=C([O-])CC[C@H](NC(=O)N[C@@H](CCCCNC(=O)CCCCCCC(=O)NCCCC[C@@H](NC(=O)[C@@H](Cc1ccccc1)NC(=O)[C@@H](Cc1ccc(O)c(I)c1)NC(=O)CC[C@H](C(=O)[O-])N1CCN(CC(=O)[O-])CCN(CC(=O)[O-])CCN(CC(=O)[O-])CC1)C(=O)[O-])C(=O)[O-])C(=O)[O-].[177Lu+3].[H+].[H+].[H+].[H+].[H+]` [[^177Lu]Lu-PSMA-I&T]?
Kd (PSMA antigen [2]): 5.1 ± 2.6 nM; Specific Binding (PSMA antigen [2]): 97.1 ± 2.9%; logD [4]: −4.47 ± 0.14; kidneys (LNCaP tumor-bearing mice; [5]): 107.24 ± 15.61 %ID g^−1; spleen (LNCaP tumor-bearing mice; [5]): 5.85 ± 2.26 %ID g^−1; tumor (LNCaP tumor-bearing mice; [5]): 7.96 ± 1.76 %ID g^−1; kidneys (LNCaP tumor-bearing mice; [6]): 105.3 ± 15.8 %ID g^−1; spleen (LNCaP tumor-bearing mice; [6]): 7.9 ± 2.6 %ID g^−1; tumor (LNCaP tumor-bearing mice; [6]): 8.0 ± 1.7 %ID g^−1

Which IC50 (PSMA) does the source give for `O=C(O)CC[C@H](NC(=O)N[C@@H](CCCCNC(=O)[C@H](Cc1ccc2ccccc2c1)NC(=O)[C@H]1CC[C@H](CNC(=O)CN2CCN(CC(=O)O)CCN(CC(=O)O)CCN(CC(=O)O)CC2)CC1)C(=O)O)C(=O)O` [PSMA-617, Glu-CO-Lys-2-naphthyl-L-Ala-cyclohexane-DOTA] here?
Its IC50 is 2.7 ± 0.1 nM.

For `O=C([O-])CN1CCN(CC(=O)[O-])CCN(CC(=O)NCC2CCC(C(=O)NC(Cc3ccc4ccccc4c3)C(=O)NCCCCC(NC(=O)NC(CCC(=O)O)C(=O)O)C(=O)O)CC2)CCN(CC(=O)[O-])CC1.[177Lu+3]` (centres unmarked) [[^177Lu]Lu-PSMA-617], which Kd (PSMA) is on record?
Its Kd is 2 ± 0.3 nM.

What about the Internalization (LNCaP cells) of the same compound?
Its Internalization is 35.4–38.9%.

What about the “Total Binding” value (LNCaP cells) of the same compound?
Its value is 10.2–16.8%.

What about the Internalization (LNCaP cells; listed as [^177Lu]Lu-PSMA 617) of the same compound?
The Internalization was 38.9 ± 1.7%.

And the “Total Binding” value (LNCaP cells; listed as [^177Lu]Lu-PSMA 617)?
Its value is 12.8 ± 1.0%.

And the kidneys [3]?
The kidneys was 3.97 ± 0.56 %ID g^−1.

And the spleen [3]?
Its spleen is 0.21 ± 0.03 %ID g^−1.

And the tumor [3]?
Its tumor is 45.8 ± 4.02 %ID g^−1.

What about the logD [4] of the same compound?
The logD was −5.12 ± 0.07.

What does the source list for `O=C([O-])CN1CCN(CC(=O)[O-])CCN(CC(=O)NCC2CCC(C(=O)NC(Cc3ccc4ccccc4c3)C(=O)NCCCCC(NC(=O)NC(CCC(=O)O)C(=O)O)C(=O)O)CC2)CCN(CC(=O)[O-])CC1.[225Ac+3]` (centres unmarked) [PSMA-617 labeled with actinium-225]?
hematologic toxicity (mCRPC patients): extremely low hematologic toxicity; patients with prostate-specific antigen (PSA) response in terms of PSA decline (mCRPC patients): ~90%

For `O=C([O-])CN1CCN(CC(=O)[O-])CCN(CC(=O)NCC2CCC(C(=O)NC(Cc3ccc4ccccc4c3)C(=O)NCCCCC(NC(=O)NC(CCC(=O)O)C(=O)O)C(=O)O)CC2)CCN(CC(=O)[O-])CC1.[47Sc+3]` (centres unmarked) [[^47Sc]Sc-PSMA-617], which kidneys [3] is on record?
The kidneys was 5.97 ± 0.90 %ID g^−1.

What about the spleen [3] of the same compound?
The spleen was 0.81 ± 0.34 %ID g^−1.

And the tumor [3]?
The tumor was 46.7 ± 4.36 %ID g^−1.

Which kidneys [3] does the source give for `O=C([O-])CN1CCN(CC(=O)[O-])CCN(CC(=O)NCC2CCC(C(=O)NC(Cc3ccc4ccccc4c3)C(=O)NCCCCC(NC(=O)NC(CCC(=O)O)C(=O)O)C(=O)O)CC2)CCN(CC(=O)[O-])CC1.[68Ga+3]` (centres unmarked) [[^68Ga]Ga-PSMA-617] here?
Its kidneys is 3.48 ± 0.18 %ID g^−1.

And the spleen [3]?
Its spleen is 0.91 ± 0.14 %ID g^−1.

What about the tumor [3] of the same compound?
The tumor was 55.8 ± 14.2 %ID g^−1.

Which IC50 (PSMA antigen [1]) does the source give for `O=C(O)CCC(NC(=O)NC(CCCCNC(=O)C(Cc1c[nH]c2ccccc12)NC(=O)C1CCC(CNC(=O)CN2CCN(CC(=O)O)CCN(CC(=O)O)CCN(CC(=O)O)CC2)CC1)C(=O)O)C(=O)O` [PSMA-D4, Glu-CO-Lys-L-Trp-4-Amc-DOTA] here?
The IC50 was 28.7 ± 5.2 nM.
